Experimental data: ChEMBL document CHEMBL1770117 (Bioorg Med Chem Lett, 2011)

Columns and labels:
[1] = target: T1, Metabotropic glutamate receptor 5 (Rattus norvegicus, UniProt P31424); assay: Positive allosteric modulator activity at mGluR5 receptor expressed in HEK293A cells assessed as effect on glutamate-induced calcium flux preincubated for 140 secs before glutamate challenge by calcium fluorescence assay; assay type: functional, cell-based, HEK293-A
Target sequence in this assay (P31424 whole entry, looked up): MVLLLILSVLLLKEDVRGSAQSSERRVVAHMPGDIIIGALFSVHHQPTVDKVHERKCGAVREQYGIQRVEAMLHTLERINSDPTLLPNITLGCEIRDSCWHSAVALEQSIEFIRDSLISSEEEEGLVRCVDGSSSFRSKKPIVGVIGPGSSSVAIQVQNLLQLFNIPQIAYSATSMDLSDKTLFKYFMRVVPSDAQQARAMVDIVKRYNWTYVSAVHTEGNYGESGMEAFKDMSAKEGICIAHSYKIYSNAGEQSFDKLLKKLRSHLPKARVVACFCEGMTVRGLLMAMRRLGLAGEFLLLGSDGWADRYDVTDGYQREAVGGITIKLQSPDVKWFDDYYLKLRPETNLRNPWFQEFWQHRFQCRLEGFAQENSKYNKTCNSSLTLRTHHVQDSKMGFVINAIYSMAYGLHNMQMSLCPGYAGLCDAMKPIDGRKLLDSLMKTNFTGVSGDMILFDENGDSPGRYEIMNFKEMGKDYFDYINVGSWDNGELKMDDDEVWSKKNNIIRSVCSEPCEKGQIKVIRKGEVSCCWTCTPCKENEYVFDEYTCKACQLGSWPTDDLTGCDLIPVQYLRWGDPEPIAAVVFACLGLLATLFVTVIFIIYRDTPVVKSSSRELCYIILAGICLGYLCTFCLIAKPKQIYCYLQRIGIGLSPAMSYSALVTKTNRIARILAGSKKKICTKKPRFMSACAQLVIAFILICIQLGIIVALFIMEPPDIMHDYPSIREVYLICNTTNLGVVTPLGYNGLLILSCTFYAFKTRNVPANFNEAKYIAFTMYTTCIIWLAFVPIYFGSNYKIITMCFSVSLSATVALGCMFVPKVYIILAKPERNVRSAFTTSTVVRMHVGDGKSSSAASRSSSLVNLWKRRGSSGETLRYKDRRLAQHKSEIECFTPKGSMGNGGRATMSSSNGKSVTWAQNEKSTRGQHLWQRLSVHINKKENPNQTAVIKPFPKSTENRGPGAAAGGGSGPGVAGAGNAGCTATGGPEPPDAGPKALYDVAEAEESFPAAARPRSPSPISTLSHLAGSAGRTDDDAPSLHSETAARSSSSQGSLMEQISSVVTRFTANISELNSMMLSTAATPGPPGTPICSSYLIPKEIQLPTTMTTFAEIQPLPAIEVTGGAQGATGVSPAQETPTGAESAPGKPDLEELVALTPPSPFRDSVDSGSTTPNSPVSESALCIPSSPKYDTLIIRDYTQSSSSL

[2] = target: Metabotropic glutamate receptor 5 (Homo sapiens) (UniProt P41594); assay: Positive allosteric modulator activity at mGluR5 receptor expressed in HEK293A cells assessed as maximum glutamate-induced response preincubated for 140 secs before glutamate challenge by calcium fluorescence assay; assay type: functional, cell-based; details: HEK293-A
[3] = target: T1, Metabotropic glutamate receptor 5; assay: Partial antagonist activity at mGluR5 receptor expressed in HEK293A cells assessed as inhibition of glutamate-induced calcium flux preincubated for 140 secs before glutamate challenge by calcium fluorescence assay; assay type: functional, cell-based, HEK293-A
Target sequence in this assay (P31424 whole entry, looked up): as above

[4] = target: Metabotropic glutamate receptor 5 (Homo sapiens) (UniProt P41594); assay: Partial antagonist activity at mGluR5 receptor expressed in HEK293A cells assessed as maximum glutamate-induced response preincubated for 140 secs before glutamate challenge by calcium fluorescence assay; assay type: functional, cell-based; parameters: scale not given: the % may be the effect or the level left; details: HEK293-A
[5] = target: Metabotropic glutamate receptor 5 (Homo sapiens) (UniProt P41594); assay: Negative allosteric modulator activity at mGluR5 receptor expressed in HEK293A cells assessed as maximum glutamate-induced response preincubated for 140 secs before glutamate challenge by calcium fluorescence assay; assay type: functional, cell-based; details: HEK293-A
[6] = target: T1, Metabotropic glutamate receptor 5; assay: Negative allosteric modulator activity at mGluR5 receptor expressed in HEK293A cells assessed as inhibition of glutamate-induced calcium flux preincubated for 140 secs before glutamate challenge by calcium fluorescence assay; assay type: functional, cell-based, HEK293-A
Target sequence in this assay (P31424 whole entry, looked up): as above

[7] = target: Metabotropic glutamate receptor 5 (Rattus norvegicus) (UniProt P31424); assay: Positive allosteric modulator activity at rat mGlu5 receptor expressed in HEK293A cells assessed as fold shift in glutamate induced response relative to control; assay type: cell-based; details: HEK293-A
[8] = target: T1, Metabotropic glutamate receptor 5; assay: Positive allosteric modulator activity at rat mGlu5 receptor expressed in HEK293A cells assessed as increase in glutamate induced response; assay type: cell-based, HEK293-A
Target sequence in this assay (P31424 whole entry): as the sequence (P31424 whole entry, looked up) above

[9] = target: Metabotropic glutamate receptor 5 (Homo sapiens) (UniProt P41594); assay: Ago-Positive allosteric modulator activity at mGluR5 receptor expressed in HEK293A cells assessed as maximum glutamate-induced response preincubated for 140 secs before glutamate challenge by calcium fluorescence assay; assay type: functional, cell-based; details: HEK293-A
[10] = target: T1, Metabotropic glutamate receptor 5; assay: Ago-Positive allosteric modulator activity at mGluR5 receptor expressed in HEK293A cells assessed as effect on glutamate-induced calcium flux preincubated for 140 secs before glutamate challenge by calcium fluorescence assay; assay type: functional, cell-based, HEK293-A
Target sequence in this assay (P31424 whole entry, looked up): as above

[11] = target: T1, Metabotropic glutamate receptor 5; assay: Negative allosteric modulator activity at rat mGluR5 receptor expressed in HEK293A cells
Target sequence in this assay (P31424 whole entry): as the sequence (P31424 whole entry, looked up) above

Chain of Metabotropic glutamate receptor 5 (Homo sapiens) (P41594 21-1212 limits assumed): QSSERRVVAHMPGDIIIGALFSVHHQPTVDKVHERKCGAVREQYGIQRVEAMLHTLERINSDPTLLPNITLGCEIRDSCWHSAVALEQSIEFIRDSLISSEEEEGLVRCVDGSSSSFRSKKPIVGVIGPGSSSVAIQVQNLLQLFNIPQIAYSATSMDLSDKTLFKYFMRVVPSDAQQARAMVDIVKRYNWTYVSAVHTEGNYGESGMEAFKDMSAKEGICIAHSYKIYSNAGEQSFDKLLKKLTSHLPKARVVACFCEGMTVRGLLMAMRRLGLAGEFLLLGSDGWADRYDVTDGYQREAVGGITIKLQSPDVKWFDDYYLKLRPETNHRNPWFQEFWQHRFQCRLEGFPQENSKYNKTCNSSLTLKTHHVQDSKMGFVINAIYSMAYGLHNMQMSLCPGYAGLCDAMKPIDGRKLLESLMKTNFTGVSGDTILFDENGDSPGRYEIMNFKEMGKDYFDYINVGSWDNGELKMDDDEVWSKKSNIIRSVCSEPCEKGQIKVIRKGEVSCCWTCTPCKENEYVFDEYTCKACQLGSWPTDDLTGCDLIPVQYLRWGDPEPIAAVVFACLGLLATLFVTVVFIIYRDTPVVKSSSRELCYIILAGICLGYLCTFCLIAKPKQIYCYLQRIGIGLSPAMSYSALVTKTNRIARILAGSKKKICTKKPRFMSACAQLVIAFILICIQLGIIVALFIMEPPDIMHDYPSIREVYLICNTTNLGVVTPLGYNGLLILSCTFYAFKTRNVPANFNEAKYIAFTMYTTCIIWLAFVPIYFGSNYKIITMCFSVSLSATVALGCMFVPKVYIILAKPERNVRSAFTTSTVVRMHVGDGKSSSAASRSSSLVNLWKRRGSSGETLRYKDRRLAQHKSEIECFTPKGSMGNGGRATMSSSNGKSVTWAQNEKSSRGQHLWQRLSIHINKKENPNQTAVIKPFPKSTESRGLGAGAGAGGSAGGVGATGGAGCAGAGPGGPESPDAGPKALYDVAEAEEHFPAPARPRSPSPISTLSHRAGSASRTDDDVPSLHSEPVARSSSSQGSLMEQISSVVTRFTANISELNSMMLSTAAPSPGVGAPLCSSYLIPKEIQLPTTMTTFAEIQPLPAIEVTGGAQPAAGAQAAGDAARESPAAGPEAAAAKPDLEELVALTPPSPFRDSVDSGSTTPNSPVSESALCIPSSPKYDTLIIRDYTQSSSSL
Chain of Metabotropic glutamate receptor 5 (Rattus norvegicus) (P31424 21-1203 limits assumed): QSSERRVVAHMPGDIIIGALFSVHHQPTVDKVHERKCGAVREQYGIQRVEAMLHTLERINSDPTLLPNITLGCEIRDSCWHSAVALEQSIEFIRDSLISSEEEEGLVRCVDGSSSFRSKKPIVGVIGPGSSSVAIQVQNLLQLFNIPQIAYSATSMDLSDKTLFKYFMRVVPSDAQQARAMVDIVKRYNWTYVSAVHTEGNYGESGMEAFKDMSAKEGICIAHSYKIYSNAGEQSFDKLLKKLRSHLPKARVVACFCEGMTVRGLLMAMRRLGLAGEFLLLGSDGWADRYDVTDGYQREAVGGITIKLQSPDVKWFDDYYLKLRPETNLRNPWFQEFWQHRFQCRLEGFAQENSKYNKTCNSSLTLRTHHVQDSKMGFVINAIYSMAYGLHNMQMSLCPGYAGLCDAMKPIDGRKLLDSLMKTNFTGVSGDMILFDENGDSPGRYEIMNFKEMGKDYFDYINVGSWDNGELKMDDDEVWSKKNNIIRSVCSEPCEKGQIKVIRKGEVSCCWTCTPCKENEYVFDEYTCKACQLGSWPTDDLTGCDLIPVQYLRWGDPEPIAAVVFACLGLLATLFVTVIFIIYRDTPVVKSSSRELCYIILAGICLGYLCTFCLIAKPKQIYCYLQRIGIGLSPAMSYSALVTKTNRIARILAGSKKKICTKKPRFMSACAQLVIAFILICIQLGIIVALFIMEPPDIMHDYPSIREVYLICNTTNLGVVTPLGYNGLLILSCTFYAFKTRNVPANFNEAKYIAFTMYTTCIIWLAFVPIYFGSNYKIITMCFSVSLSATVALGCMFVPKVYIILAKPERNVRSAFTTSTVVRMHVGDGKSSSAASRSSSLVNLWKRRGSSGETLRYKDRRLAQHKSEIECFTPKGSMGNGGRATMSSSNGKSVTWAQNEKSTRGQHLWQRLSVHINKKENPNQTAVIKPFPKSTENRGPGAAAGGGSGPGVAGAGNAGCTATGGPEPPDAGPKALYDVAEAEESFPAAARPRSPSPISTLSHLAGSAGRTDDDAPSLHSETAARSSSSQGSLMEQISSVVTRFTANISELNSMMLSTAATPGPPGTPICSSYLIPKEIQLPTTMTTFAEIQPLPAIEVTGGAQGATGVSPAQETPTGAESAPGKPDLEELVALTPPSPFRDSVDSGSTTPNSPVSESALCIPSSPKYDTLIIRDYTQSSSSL

Row | SMILES | EC50 [1] | Activity [2] | Activity [5] | IC50 [6] | further results
1 | O=C(c1cccs1)N1CCCC1c1nc(-c2cccc(F)c2)no1 (centres undefined) | 430 nM | 60% |  |  | 
2 | Cc1cccc(-c2noc([C@H]3CCCCN3C(=O)C3CC3)n2)c1 |  |  |  |  | IC50 [3]: 280 nM; Activity [4]: 16%
3 | O=C(c1cccc(F)c1)N1CCCC[C@@H]1c1nc(-c2cccc(F)c2)no1 | 460 nM | 59% |  |  | 
4 | O=C(c1cccs1)N1CCCC[C@@H]1c1nc(-c2cccc(F)c2)no1 |  | 34% |  |  | 
5 | COc1cccc(-c2noc([C@@H]3CCCN(C(=O)C4CCC4)C3)n2)c1 |  |  | 54% | > 10000 nM | 
6 | O=C(C1CCCC1)N1CCCC1c1nc(-c2cccc(F)c2)no1 (centres undefined) | 1000 nM | 75% |  |  | 
7 | O=C(c1ccc(F)cc1)N1CCC[C@H](c2nc(-c3cccs3)no2)C1 |  |  |  |  | fold change (FC) [7]: 20; EC50 [8]: 170 nM
8 | Cc1ccc(C#Cc2cncnc2)cc1 |  |  |  |  | fold change (FC) [7]: 4.2
9 | O=C(C1CCC1)N1CCC[C@H](c2nc(-c3cccc(F)c3)no2)C1 |  |  | 31% | 2400 nM | 
10 | Cc1cccc(-c2noc(C3CCCN3C(=O)C3CCC3)n2)c1 (racemic) |  |  | 34% | 2400 nM | 
11 | O=C(C1CCC1)N1CCCC1c1nc(-c2cccc(F)c2)no1 (stereo in doubt; 24b) [listing 1 of 2 here] | 1500 nM |  |  |  | 
12 | O=C(c1cccc(F)c1)N1CCCC1c1nc(-c2cccc(F)c2)no1 (centres undefined) | 2600 nM | 47% |  |  | 
13 | O=C(C1CCC1)N1CCCC1c1nc(-c2ccc(F)cc2)no1 (racemic) | 2700 nM | 72% |  |  | 
14 | O=C(C1CCC1)N1CCCC1c1nc(-c2cccc(F)c2)no1 (racemic) |  | 64% |  |  | 
15 | O=C(C1CCC1)N1CCC[C@@H]1c1nc(-c2cccc(F)c2)no1 | 530 nM | 68.4% |  |  | 
16 | O=C(C1CCC1)N1CCC[C@H](c2nc(-c3cccc(Cl)c3)no2)C1 |  |  | 2.4% | 200 nM | 
17 | O=C(C1CCC1)N1CCCC[C@H]1c1nc(-c2ccccn2)no1 |  |  |  | 10000 nM | 
18 | O=C(C1CCC1)N1CCCC1c1nc(-c2cccc(Cl)c2)no1 (racemic) |  |  | 25% | 10000 nM | 
19 | O=C(C1CCC1)N1CCCC[C@H]1c1nc(-c2cccc(F)c2)no1 | 700 nM |  |  |  | 
20 | Cc1cccc(-c2noc([C@H]3CCCCN3C(=O)c3ccc(F)c(F)c3)n2)c1 |  |  | 46% | 10000 nM | 
21 | O=C(C1CCC1)N1CCC[C@@H](c2nc(-c3ccccn3)no2)C1 |  |  | 19% | 9900 nM | 
22 | COc1cccc(-c2noc([C@H]3CCCCN3C(=O)C3CCC3)n2)c1 |  |  |  | 300 nM | 
23 | O=C(C1CCC1)N1CCCC1c1nc(-c2cccc(F)c2)no1 (stereo in doubt; 24b) [listing 2 of 2 here] |  | 63% |  |  | 
24 | Cc1cccc(-c2noc([C@H]3CCCCN3C(=O)C3CCCC3)n2)c1 |  |  |  |  | IC50 [3]: 600 nM; Activity [4]: 24%
25 | O=C(C1CCC1)N1CCCC[C@@H]1c1nc(-c2cccs2)no1 |  |  |  | 3500 nM | 
26 | Cc1cccc(-c2noc([C@H]3CCCCN3C(=O)c3ccc(F)cc3)n2)c1 |  |  | 47% | 10000 nM | 
27 | Cc1cccc(-c2noc([C@H]3CCCN(C(=O)C4CCC4)C3)n2)c1 |  |  | 2.5% | 700 nM | 
28 | O=C(C1CCC1)N1CCC[C@H]1c1nc(-c2cccc(F)c2)no1 | 7000 nM | 57.3% |  |  | 

Row | SMILES | EC50 [1] | Activity [2] | Activity [5] | IC50 [6] | further results
29 | O=C(C1CCC1)N1CCC[C@H](c2nc(-c3cccs3)no2)C1 |  |  | 67% | 9300 nM | 
30 | O=C(C1CCC1)N1CCCC[C@@H]1c1nc(-c2cccc(F)c2)no1 (stereo in doubt; 22b) [listing 1 of 2 here] |  | 38% |  |  | 
31 | Cc1cccc(-c2noc([C@@H]3CCCN(C(=O)C4CCC4)C3)n2)c1 |  |  | 14% | 4700 nM | 
32 | Cc1cccc(-c2noc([C@H]3CCCCN3C(=O)c3cccc(F)c3)n2)c1 |  |  | 16% | 4700 nM | 
33 | O=C(c1ccc(F)cc1F)N1CCCC1c1nc(-c2cccc(F)c2)no1 (centres undefined) | 10000 nM | 61% |  |  | 
34 | COc1cccc(-c2noc([C@H]3CCCN(C(=O)C4CCC4)C3)n2)c1 |  |  | 2.1% | 1800 nM | 
35 | O=C(C1CC1)N1CCCC[C@@H]1c1nc(-c2cccc(F)c2)no1 |  |  |  |  | Activity [9]: 70%; EC50 [10]: 80 nM
36 | O=C(C1CCCCC1)N1CCCC[C@@H]1c1nc(-c2cccc(F)c2)no1 | 3500 nM | 58% |  |  | 
37 | O=C(c1ccc(F)cc1)N1CCCC[C@@H]1c1nc(-c2cccc(F)c2)no1 |  | 91% |  |  | 
38 | Cc1cccc(-c2noc([C@H]3CCCCN3C(=O)c3cccs3)n2)c1 |  |  | 0.9% | 730 nM | 
39 | O=C(C1CCC1)N1CCCC[C@@H]1c1nc(-c2cccc(F)c2)no1 (stereo in doubt; 22b) [listing 2 of 2 here] | 650 nM |  |  |  | 
40 | O=C(C1CCC1)N1CCC[C@H](c2nc(-c3ccccn3)no2)C1 |  |  | 33% | > 10000 nM | IC50 [11]: 8700 nM
41 | O=C(c1ccc(F)cc1F)N1CCC[C@H](c2nc(-c3ccccn3)no2)C1 |  |  |  |  | fold change (FC) [7]: 14; EC50 [8]: 240 nM
42 | O=C(C1CCC1)N1CCCC[C@@H]1c1nc(-c2cccc(F)c2)no1 (stereo in doubt; (R)-20c) | 600 nM |  |  |  | 
43 | Cc1cccc(-c2noc([C@H]3CCCCN3C(=O)C3CCCCC3)n2)c1 |  |  | 9.2% | 2500 nM | 
44 | Cc1cccc(-c2noc([C@H]3CCCCN3C(=O)C3CCC3)n2)c1 |  |  |  | 300 nM | 
45 | O=C(c1ccc(F)cc1)N1CCCC1c1nc(-c2cccc(F)c2)no1 (centres undefined) | 3600 nM | 59% |  |  | 
46 | O=C(C1CCC1)N1CCC[C@@H](c2nc(-c3cccc(Cl)c3)no2)C1 |  |  | 18% | 3100 nM | 
47 | O=C(C1CCC1)N1CCC[C@@H](c2nc(-c3cccc(F)c3)no2)C1 |  |  | 60% | > 10000 nM | 
48 | O=C(c1ccc(F)cc1F)N1CCCC[C@@H]1c1nc(-c2cccc(F)c2)no1 | 2900 nM | 95% |  |  | 
49 | O=C(C1CCC1)N1CCCC[C@H]1c1nc(-c2cccs2)no1 |  |  |  | 2600 nM | 
50 | O=C(C1CC1)N1CCCC1c1nc(-c2cccc(F)c2)no1 (centres undefined) | 2900 nM | 68% |  |  | 
51 | O=C(c1ccc(F)c(F)c1)N1CCCC[C@@H]1c1nc(-c2cccc(F)c2)no1 | 1400 nM | 93% |  |  | 
52 | O=C(c1ccc(F)c(F)c1)N1CCCC1c1nc(-c2cccc(F)c2)no1 (centres undefined) | 3700 nM | 62% |  |  | 
53 | COc1cccc(-c2noc([C@@H]3CCCCN3C(=O)C3CCC3)n2)c1 |  |  |  | 80 nM | 
54 | O=C(C1CCCC1)N1CCCC[C@@H]1c1nc(-c2cccc(F)c2)no1 |  |  |  |  | Activity [9]: 80%; EC50 [10]: 310 nM
55 | Cc1cccc(-c2noc([C@@H]3CCCCN3C(=O)C3CCC3)n2)c1 |  |  |  | 500 nM | 
